From PubChem BioAssay AID463199 (Broad Institute, 2010)
Active and inactive are the calls of the source.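 How the source made its calls: active means AC50, the dose giving half-maximal effect, exceeds a fixed cutoff for a compound that rescues yeast growth under heat; inactive means the rest, inconclusive results apart.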

Test system: S. cerevisiae Burl-1 ts mutant growth, BacTiter-Glo, 38.5C 24 h
Test: growth induction of Burl-1 ts yeast mutant, dose response, counter-screen for SUMOylation pathway inhibitor project, whole organism, S. cerevisiae, luminescence (AID 463199)

Row | SMILES | AC50
1 | Oc1cccc(/C=N/N2CCN(c3ccccn3)CC2)c1 | > 21 µM (inactive)
2 | Cc1nc2ccc(S(=O)(=O)NC(CC(C)C)C(=O)O)cc2s1 (stereo not given) | > 42 µM (inactive)
3 | CC(C)NC(=O)COc1ccc(S(=O)(=O)N(C)Cc2ccccc2)cc1 | > 42 µM (inactive)
4 | Cc1ccc2nc(NC(=O)C3CCN(S(=O)(=O)c4cccnc4)CC3)sc2c1 | > 42 µM (inactive)
5 | Cc1ccc(-n2c(SCC(=O)N(C)C3CCS(=O)(=O)C3)nc3ccccc3c2=O)cc1 (stereo not given) | > 42 µM (inactive)
6 | CC1CC(C)(C)N2C(=O)C3(Nc4ccccc4S3)c3cccc1c32 (stereo not given) | > 42 µM (inactive)
7 | OC(COc1ccccc1)Cn1c2ccccc2c2ccccc21 (stereo not given) | > 42 µM (inactive)
8 | C[C@]12CC[C@H]3C(=CCc4cc(O)ccc43)[C@@H]1CCC2=O | > 42 µM (inactive)
9 | COc1ccccc1N1CCN(C(=O)c2sc3ncnc(N4CCN(c5ccccn5)CC4)c3c2C)CC1 | > 42 µM (inactive)
10 | Cc1nn(C)cc1CNC(=O)C1CCC(=O)N(Cc2cccc(C(F)(F)F)c2)C1 (stereo not given) | > 42 µM (inactive)
11 | Cc1occc1-c1nnc(SCC(=O)N2CCN(c3ccccc3)CC2)n1C | > 42 µM (inactive)
12 | CN1C(=O)C(O)(CC(=O)c2ccccc2O)c2cc(Br)ccc21 (stereo not given) | > 42 µM (inactive)
13 | Cc1cc(C(=O)NNC(=O)c2ccc(C)s2)c(C)o1 | > 42 µM (inactive)
14 | COC(=O)C1CN(C(=O)C(C)Oc2ccc(F)cc2)c2ccccc2O1 (stereo not given) | > 42 µM (inactive)
15 | Cc1n[nH]c(=O)nc1NCc1ccc(Cl)cc1 | > 42 µM (inactive)
16 | C/C=C/C(=O)OCC(=O)Nc1nc2ccc(C)cc2s1 | > 42 µM (inactive)
17 | N=c1c[n+](C2CCCCC2)[n-]o1 | > 42 µM (inactive)
18 | COC(=O)c1ccc(CSc2nc3ccccc3c(=O)n2CC(C)C)o1 | > 42 µM (inactive)
19 | CC(C)(C)c1ccc(C(=O)COC(=O)CN2C(=O)NC3(CCCC3)C2=O)cc1 | > 42 µM (inactive)
20 | CCOc1cc(C(N)=O)cc(Cl)c1OCc1ccccc1 | > 42 µM (inactive)

Row | SMILES | AC50
21 | Cc1ccc(S(=O)(=O)N2CCOCC2)cc1NC(=O)COC(=O)CNC(=O)c1ccccc1 | > 42 µM (inactive)
22 | COc1ccc(S(=O)(=O)N2CCCOC2CNC(=O)C(=O)NCCCN2CCOCC2)cc1C (stereo not given) | > 42 µM (inactive)
23 | COc1cc(/C=N/NC(=O)c2cccnc2)ccc1OCC(=O)N1CCOCC1 | > 42 µM (inactive)
24 | COC(=O)[C@H](Cc1ccccc1)NC(=O)NC(C)CCc1ccccc1 (stereo not given in full) | > 42 µM (inactive)
25 | O=C(O)C1C(C(=O)O)C2(Cl)C(Cl)=C(Cl)C1(Cl)C2(Cl)Cl (stereo not given) | > 42 µM (inactive)
26 | CC(C)NC(=O)NC(=O)COC(=O)CCCSc1nc2ccccc2s1 | > 42 µM (inactive)
27 | CN(C)/C=C/C(=O)c1ccncc1 | > 42 µM (inactive)
28 | O=C(CSc1cccc[n+]1[O-])N1CCc2ccccc21 | > 42 µM (inactive)
29 | CN(C(=O)CSc1nnc(-c2cccc(F)c2)n1N)C1CCS(=O)(=O)C1 (stereo not given) | > 42 µM (inactive)
30 | COC(=O)c1ccccc1SC(CC(=O)c1ccccc1)c1ccc(F)cc1 (stereo not given) | > 42 µM (inactive)
31 | CCN1C(=O)N(c2ccc(Cl)cc2)C(C)=CC1(C)C | > 42 µM (inactive)
32 | O=c1/c(=C/c2ccco2)sc2nc(-c3ccccc3Br)nn12 | > 42 µM (inactive)
33 | O=C(Cc1ccc(Cl)cc1Cl)OCC(=O)c1ccc[nH]1 | > 42 µM (inactive)
34 | O=C(CSc1nc2ccc(Cl)cc2[nH]1)NCc1ccco1 | > 42 µM (inactive)
35 | COc1ccc(C2=Nn3c(nnc3-c3ccco3)SC2)cc1 | > 42 µM (inactive)
36 | S=C(NCCc1ccccc1)Nc1ccccc1Cl | > 42 µM (inactive)
37 | O=c1cc(COc2ncnc3ccccc23)nc2sccn12 | > 42 µM (inactive)
38 | CC(=O)c1ccc(NC(=O)CSc2nnc(-c3ccco3)o2)cc1 | > 42 µM (inactive)
39 | O=C(O)c1ccc(N=C2NC(=O)C(CO)(CO)S2)cc1 | > 42 µM (inactive)
40 | CCOc1cc(S(=O)(=O)NCc2ccc3c(c2)OCO3)c(C)cc1C | > 42 µM (inactive)
